This is an account of results in US10385045B2, “Compound having EP2 agonist activity” (ONO PHARMACEUTICAL CO., LTD., priority 2015, dated 2019).

Where only a bound is given, the exact number is not on record here.

In the first experiment the target is T1, human EP2 receptor (Homo sapiens, UniProt P43116).
T1 construct: expressed in transfected cells; host or cells: CHO cells (EP2-CHO)
T1 sequence (P43116 whole entry): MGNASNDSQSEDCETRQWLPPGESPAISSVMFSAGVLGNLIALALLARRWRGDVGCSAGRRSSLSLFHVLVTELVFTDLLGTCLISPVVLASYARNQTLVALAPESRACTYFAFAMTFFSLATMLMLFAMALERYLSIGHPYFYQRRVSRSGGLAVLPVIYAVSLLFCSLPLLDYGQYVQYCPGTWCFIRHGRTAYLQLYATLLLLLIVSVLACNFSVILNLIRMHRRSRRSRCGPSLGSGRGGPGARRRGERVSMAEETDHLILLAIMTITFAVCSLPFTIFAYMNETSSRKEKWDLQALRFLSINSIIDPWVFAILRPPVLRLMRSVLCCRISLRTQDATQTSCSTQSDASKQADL
Briefly: Measurement of EP2 agonist activity (cAMP concentration) in EP2-CHO cells. The experiment is classed as cell-based. To be noted: EP2-CHO cells, cAMP production, 30 minutes at room temperature; read-out: EC50 (agonist activity on human EP2 receptor). On the procedure:
(1) Measurement of Agonist Activity on Various Prostanoid Receptors
Using Chem1 cells or CHO cells in which various prostanoid receptors were forcibly expressed, respectively, agonist activities of test compounds on various prostanoid receptors was determined employing, as a measure, an intracellular cyclic AMP (hereinbelow, abbreviated as “cAMP”) production amount or an intracellular calcium concentration.
Each of the test compound and a control substance (PGE2 and PGF2α) was dissolved in dimethyl sulfoxide (DMSO) to prepare a 10 mmol/L solution. The 10 mmol/L solution thus prepared was thawed upon use, was then serially diluted with DMSO, and was then diluted with a buffered solution for measurement or a buffered solution for measurement 2, and then the resulting solution was subjected to an experiment.
Cells, in which various prostanoid receptors were respectively forcibly expressed, were subjected to static culture at 37° C. in the presence of 5% CO2 using a DMEM medium (Sigma) (for culturing FP-Chem1 cells) containing inactivated (56° C., 30 minutes) 9.8 vol % nondialysed-FBS (Life Technologies), 1 vol % Non Essential Amino Acids (Life Technologies), 10 mmol/L HEPES Buffered solution (Life Technologies), 0.5 vol % GENETICIN (Life Technologies) and 1% penicillin-streptomycin (Life Technologies) or an α-MEM medium (Sigma) (for culturing EP2-CHO cells) containing inactivated (56° C., 30 minutes) 9.8 vol % dialysed-FBS (Life Technologies) and penicillin-streptomycin-glutamine (Life Technologies). Subculturing was carried out in the following manner.
The medium was removed from a culture, and the culture was washed with Ca^2+-free and Mg^2+-free phosphate-buffered physiological saline one time. A proper amount of trypsin-EDTA (Life Technologies) was added to the washed product, and then the resultant product was incubated at 37° C. The cells were detached, and then a medium in a volume that is 10-fold the volume of trypsin-EDTA was added thereto to terminate the enzymatic reaction. The cells were collected in a centrifuge tube and then centrifuged at room temperature at 120 g for 3 minutes, and the supernatant was discarded therefrom. The cells were suspended in a proper amount of the medium and seeded in a culture flask.
On the day of measurement, a medium was removed and EP2-CHO cells were washed one time with a phosphate-buffered physiological saline containing 2 mmol/L EDTA and not containing Ca^2+ and Mg^2+. A proper amount of the phosphate-buffered physiological saline containing 2 mmol/L EDTA and not containing Ca^2+ and Mg^2+ was added to the cells, and this was incubated at 37° C. in the presence of 5% CO2. Subsequently, the cells were detached, then collected in a centrifuge tube and then centrifuged at room temperature at 550 g for 3 minutes, and the supernatant was removed therefrom. The cells were suspended in a proper amount of a buffered solution for measurement 1 (a MEM medium (Invitrogen) containing 1.0 w/v % of bovine serum albumin (Sigma) and 2 μmol/L of diclofenac (Sigma)), and the suspension was centrifuged at room temperature at 200 g for 3 minutes, and the supernatant was removed. The cells were suspended in a buffered solution for measurement 2 (MEM medium (Invitrogen) containing 1.0 w/v % of bovine serum albumin (Sigma), 2 μmol/L of diclofenac (Sigma) and 1 mmol/L of 3-isobutyl-1-methylxanthine), and each 25 μL of the suspension was dispensed into a 96-well ½ area plate so that the number of cells per well became […]. The buffered solution for measurement 2 (25 μL) containing a compound at each of various concentrations was added to each well to carry out a reaction at room temperature for 30 minutes. Measurement of a cAMP concentration was carried out using cAMP HTRF HiRange kit (CIS bio International). In accordance with the two-step protocol of the kit manual, each 25 μL of cAMP-D2 and Cryptase each diluted with a lysis buffer were added. […]
As for `COc1ccc(OCCC/C=C/[C@@H]2[C@H]3CC[C@H](c4nc(C(=O)O)cs4)O[C@H]3C[C@H]2O)cc1` [Example 2-1, 2-{(2R,4aR,5R,6R,7aS)-6-Hydroxy-5-[(1E)-5-(4-methoxyphenoxy)-1-penten-1-yl]octahydrocyclopenta[b]pyran-2-yl}-1,3-thiazole-4-carboxylic acid], the EC50 was found to be 1.8 nM. The same measure, in the same setting: to `O=C(O)c1csc([C@H]2CC[C@@H]3[C@@H](/C=C/C(O)CCC4CCCC4)[C@H](O)C[C@@H]3O2)n1` (stereo partly drawn) [Example 10-3, 2-{(2R,4aR,5R,6R,7aS)-5-[(1E)-5-Cyclopentyl-3-hydroxy-1-penten-1-yl]-6-hydroxyoctahydrocyclopenta[b]pyran-2-yl}-1,3-thiazole-4-carboxylic acid] belongs 0.11 nM.

`O=C(O)c1csc([C@H]2CC[C@@H]3[C@@H](/C=C/CCCOc4ccccc4)[C@H](O)C[C@@H]3O2)n1` [Example 2-4, 2-{(2R,4aR,5R,6R,7aS)-6-Hydroxy-5-[(1E)-5-phenoxy-1-penten-1-yl]octahydrocyclopenta[b]pyran-2-yl}-1,3-thiazole-4-carboxylic acid]: the EC50 stood at 14 nM. Turning to `CCCCCC(F)(F)/C=C/[C@@H]1[C@H]2CC[C@H](c3nc(C(=O)O)cs3)O[C@H]2C[C@H]1O` [Example 8, 2-{(2R,4aR,5R,6R,7aS)-5-[(1E)-3,3-Difluoro-1-octen-1-yl]-6-hydroxyoctahydrocyclopenta[b]pyran-2-yl}-1,3-thiazole-4-carboxylic acid], the EC50 is 0.4 nM. Still for that read-out and setting: to `N#Cc1ccc(CCC(O)/C=C/[C@@H]2[C@H]3CC[C@H](c4nc(C(=O)O)cs4)O[C@H]3C[C@H]2O)cc1` (stereo partly drawn) [Example 10, 2-{(2R,4aR,5R,6R,7aS)-5-[(1E)-5-(4-Cyanophenyl)-3-hydroxy-1-penten-1-yl]-6-hydroxyoctahydrocyclopenta[b]pyran-2-yl}-1,3-thiazole-4-carboxylic acid] belongs 0.29 nM; to `O=C(O)c1csc([C@H]2CC[C@@H]3[C@@H](/C=C/COc4ccccc4C(F)(F)F)[C@H](O)C[C@@H]3O2)n1` [Example 2-16, 2-[(2R,4aR,5R,6R,7aS)-6-Hydroxy-5-{(1E)-3-[2-(trifluoromethyl)phenoxy]-1-propen-1-yl}octahydrocyclopenta[b]pyran-2-yl]-1,3-thiazole-4-carboxylic acid], 1.3 nM; to `Cc1cc(OCC[C@@H]2[C@H]3CC[C@H](c4nc(C(=O)O)cs4)O[C@H]3C[C@H]2O)ccc1[N+](=O)[O-]` [Example 13-20, 2-{(2R,4aR,5R,6R,7aS)-6-Hydroxy-5-[2-(3-methyl-4-nitrophenoxy)ethyl]octahydrocyclopenta[b]pyran-2-yl}-1,3-thiazole-4-carboxylic acid], 5.7 nM. Regarding `O=C(O)c1csc([C@H]2CC[C@@H]3[C@@H](/C=C/CCOc4ccccc4)[C@H](O)C[C@@H]3O2)n1` [Example 2-2, 2-{(2R,4aR,5R,6R,7aS)-6-Hydroxy-5-[(1E)-4-phenoxy-1-buten-1-yl]octahydrocyclopenta[b]pyran-2-yl}-1,3-thiazole-4-carboxylic acid], the EC50 worked out at 3.9 nM.

`CCC1([C@@H](O)C/C=C/[C@@H]2[C@H]3CC[C@H](c4nc(C(=O)O)cs4)O[C@H]3C[C@H]2O)CCC1` [Example 11-2, 2-{(2R,4aR,5R,6R,7aS)-5-[(1E,4S)-4-(1-Ethylcyclobutyl)-4-hydroxy-1-buten-1-yl]-6-hydroxyoctahydrocyclopenta[b]pyran-2-yl}-1,3-thiazole-4-carboxylic acid]: the EC50 was 0.1 nM. The same measure, in the same setting: as for `Cc1ccc(OC/C=C/[C@@H]2[C@H]3CC[C@H](c4nc(C(=O)O)cs4)O[C@H]3C[C@H]2O)cc1` [Example 2-9, 2-{(2R,4aR,5R,6R,7aS)-6-Hydroxy-5-[(1E)-3-(4-methylphenoxy)-1-propen-1-yl]octahydrocyclopenta[b]pyran-2-yl}-1,3-thiazole-4-carboxylic acid], the figure is 5.8 nM.

The experiment is the same for the next values; noted with them: comparison compounds from prior art documents; read-out: EC50 (EP2 agonist activity) of prior art compounds with analogous structure.
With `O=C(O)c1ccc(C2=CC[C@@H]3[C@@H](/C=C/[C@@H](O)C4CCCC4)[C@H](O)C[C@@H]3O2)o1` [reference compound], the EC50 is no less than 10000 nM. Same read-out and setting: as for `O=C(O)c1csc([C@H]2CC[C@@H]3[C@@H](/C=C/[C@@H](O)COc4ccccc4)[C@H](O)C[C@@H]3OC2)n1` [reference compound], the figure is no less than 10000 nM. On the same count and under the same terms, to `CCCCC[C@H](O)/C=C/[C@@H]1[C@H]2CCC(c3ccccc3CC(=O)O)O[C@H]2C[C@H]1O` (stereo partly shown) [reference compound] belongs no less than 10000 nM.

System in the next experiment: not listed separately
Briefly: Intraocular pressure lowering activity after ocular instillation in rabbit. The experiment is classed as in vivo. To be noted: male rabbit (NZW), ocular instillation 30 μL, administration concentration 10 μg/mL, 8 hours after the administration. How it is done:
As can be easily understood by a person skilled in the art, in an in vivo test, since regarding all test compounds, carboxylic acid which is an active body has poor corneal permeability, pharmacological action of the active body was evaluated by ocular instillation administration of a compound which had been converted into an ester such as an ethyl ester or an isopropyl ester, or an alcohol.
A test compound-containing solution (30 μL) which had been adjusted to each of various concentrations was ocular instillation-administered to the left or right eye of a male rabbit (NZW (Healthy)) under consciousness, and an intraocular pressure was measured before the administration and 8 hours after the administration. An intraocular pressure before the administration was measured on a day before the administration. In measurement of an intraocular pressure, the rabbit was fixed on a wood-made restrainer, and the rabbit was anesthetized by the ocular instillation-administration of an ocular surface anesthetic agent (Benoxil eye drops 0.4%, Santen Pharmaceutical Co., Ltd.). After fitting a blepharostat (Handaya Co., Ltd.) to the rabbit, intraocular pressures of both eyes were measured (6 cases per group) with a pneumatic applanation flat tonometer (Model 30 Classic, REICHERT). A difference between an intraocular pressure value before the administration of a test compound and an intraocular pressure value after the administration of the test compound was calculated as an intraocular pressure lowering rate in accordance with the equation shown below, and the sustainability of intraocular eye lowering action was evaluated.
The administered concentrations were selected on the basis of the EP2 agonist activities measured by the above-mentioned method.
In the case of `CC(C)OC(=O)c1csc([C@H]2CC[C@@H]3[C@@H](/C=C/COc4ccccc4C(F)(F)F)[C@H](O)C[C@@H]3O2)n1` [Example 4-3, Isopropyl 2-[(2R,4aR,5R,6R,7aS)-6-hydroxy-5-{(1E)-3-[2-(trifluoromethyl)phenoxy]-1-propen-1-yl}octahydrocyclopenta[b]pyran-2-yl]-1,3-thiazole-4-carboxylate], the “Intraocular pressure lowering rate (%)” value was 12.1%. On the same count and under the same terms, to `COc1ccc(OCCC/C=C/[C@@H]2[C@H]3CC[C@H](c4nc(C(=O)OC(C)C)cs4)O[C@H]3C[C@H]2O)cc1` [Example 4, Isopropyl 2-{(2R,4aR,5R,6R,7aS)-6-hydroxy-5-[(1E)-5-(4-methoxyphenoxy)-1-penten-1-yl]octahydrocyclopenta[b]pyran-2-yl}-1,3-thiazole-4-carboxylate] belongs 19.1%; to `Cc1cc(OCC[C@@H]2[C@H]3CC[C@H](c4nc(C(=O)OC(C)C)cs4)O[C@H]3C[C@H]2O)ccc1[N+](=O)[O-]` [Example 14, Isopropyl 2-{(2R,4aR,5R,6R,7aS)-6-hydroxy-5-[2-(3-methyl-4-nitrophenoxy)ethyl]octahydrocyclopenta[b]pyran-2-yl}-1,3-thiazole-4-carboxylate], 23.6%.
